Reference: PubChem BioAssay (NCI)
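Abbreviation: GI50, concentration required for 50% inhibition of growth. TGI denotes the concentration required for complete inhibition of growth.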

What was measured:
Test in all cases: NCI tumour cell line growth inhibition, 384-well format
[1] = system: SK-MEL-28 melanoma
[2] = system: A549 NSCLC
[3] = system: NCI-H460 NSCLC
[4] = system: HS 578T breast
[5] = system: HCT-116 colon
[6] = system: T-47D breast
[7] = system: OVCAR-8 ovarian
[8] = system: EKVX NSCLC
[9] = system: RPMI-8226 leukemia
[10] = system: RXF 393 renal
[11] = system: COLO 205 colon
[12] = system: HOP-92 NSCLC
[13] = system: UACC-62 melanoma
[14] = system: LOX IMVI melanoma
[15] = system: PC-3 prostate
[16] = system: MDA-MB-468 breast
[17] = system: TK-10 renal
[18] = system: OVCAR-5 ovarian
[19] = system: HCT-15 colon
[20] = system: MCF7 breast
[21] = system: KM12 colon
[22] = system: MDA-MB-435 melanoma
[23] = system: MOLT-4 leukemia
[24] = system: UACC-257 melanoma
[25] = system: NCI-H522 lung
[26] = system: SR leukemia
[27] = system: SF-268 CNS
[28] = system: CCRF-CEM leukemia
[29] = system: SNB-19 CNS
[30] = system: HL-60(TB) leukemia
[31] = system: HOP-62 NSCLC
[32] = system: U251 glioblastoma
[33] = system: SF-295 CNS
[34] = system: 786-0 renal
[35] = system: SF-539 CNS
[36] = system: HT29 colon
[37] = system: OVCAR-3 ovarian
[38] = system: A498 renal
[39] = system: OVCAR-4 ovarian
[40] = system: SK-MEL-2 melanoma
[41] = system: MALME-3M melanoma
[42] = system: NCI-H23 lung
[43] = system: IGROV1 ovarian
[44] = system: SNB-75 CNS
[45] = system: MDA-MB-231 breast
[46] = system: SW-620 colon
[47] = system: DU-145 prostate

`Nc1nc2cc(-c3ccc4ncc(C(=O)N5CCOCC5)n4c3)ccc2o1` was tested, and the GI50 [1] was > 57.6 µM, the TGI [1] was > 100 µM and the GI50 [2] was 9.11 µM. The TGI [2] was > 100 µM, the GI50 [3] was 2.77 µM and the TGI [3] was > 100 µM. For the same compound, the GI50 [4] was 6.07 µM, the TGI [4] was 66.2 µM and the GI50 [5] was 5.23 µM. For the same compound, the TGI [5] was > 100 µM, the GI50 [6] was 0.574 µM and the TGI [6] was 3.14 µM. For the same compound, the GI50 [7] was > 78.2 µM, the TGI [7] was > 100 µM and the GI50 [8] was 5.01 µM. The TGI [8] was > 100 µM, the GI50 [9] was 1.58 µM and the TGI [9] was 4.55 µM. For the same compound, the GI50 [10] was 40.2 µM, the TGI [10] was > 100 µM and the GI50 [11] was 10.2 µM. For the same compound, the TGI [11] was > 100 µM, the GI50 [12] was 2.2 µM and the TGI [12] was 18.5 µM. The GI50 [13] was 66.4 µM, the TGI [13] was > 100 µM and the GI50 [14] was 19.5 µM. The TGI [14] was > 100 µM, the GI50 [15] was 5.45 µM and the TGI [15] was > 100 µM. For the same compound, the GI50 [16] was 3.93 µM, the TGI [16] was > 92.3 µM and the GI50 [17] was 5.17 µM. The TGI [17] was 53.7 µM, the GI50 [18] was 7.68 µM and the TGI [18] was > 100 µM. The GI50 [19] was 6.21 µM, the TGI [19] was > 100 µM and the GI50 [20] was 1.45 µM. For the same compound, the TGI [20] was > 100 µM, the GI50 [21] was 28.7 µM and the TGI [21] was > 100 µM. The GI50 [22] was 24.2 µM, the TGI [22] was > 100 µM and the GI50 [23] was 3.45 µM. The TGI [23] was 19.9 µM, the GI50 [24] was > 100 µM and the TGI [24] was > 100 µM. For the same compound, the GI50 [25] was 4.05 µM, the TGI [25] was > 74.5 µM and the GI50 [26] was 12.2 µM. The TGI [26] was > 100 µM, the GI50 [27] was 35.1 µM and the TGI [27] was > 100 µM. For the same compound, the GI50 [28] was 7.44 µM, the TGI [28] was > 100 µM and the GI50 [29] was > 73.8 µM. For the same compound, the TGI [29] was > 100 µM, the GI50 [30] was 5.36 µM and the TGI [30] was > 78 µM. For the same compound, the GI50 [31] was > 26.4 µM, the TGI [31] was > 100 µM and the GI50 [32] was > 74.7 µM. The TGI [32] was > 100 µM, the TGI [33] was > 95.1 µM and the GI50 [34] was > 75.6 µM. The TGI [34] was > 100 µM, the GI50 [35] was > 60.9 µM and the TGI [35] was > 100 µM. The GI50 [36] was 8.1 µM, the TGI [36] was > 100 µM and the GI50 [37] was 7.73 µM. For the same compound, the TGI [37] was > 100 µM, the GI50 [38] was 5.93 µM and the TGI [38] was > 100 µM. For the same compound, the GI50 [39] was > 40.7 µM, the TGI [39] was > 100 µM and the GI50 [40] was 30 µM. For the same compound, the TGI [40] was > 100 µM, the GI50 [41] was 2.78 µM and the TGI [41] was > 68.5 µM. The GI50 [42] was 5.59 µM, the TGI [42] was > 100 µM and the GI50 [43] was 1.85 µM. The TGI [43] was 5.23 µM, the GI50 [44] was 10.2 µM and the TGI [44] was > 75 µM. For the same compound, the GI50 [45] was 9.02 µM, the TGI [45] was > 100 µM and the GI50 [46] was 17.7 µM. For the same compound, the TGI [46] was > 91.4 µM, the GI50 [47] was 21.3 µM and the TGI [47] was > 100 µM.
